These results are taken from patent US8242109B2, “Compositions and methods relating to novel compounds and targets thereof” (priority 2007, dated 2012).

Test [1] addresses T1, F1F0-ATPase (Bos taurus, UniProt P13621).
T1 construct: from tissue; host or cells: bovine sub-mitochondrial particles (SMPs)
Put plainly: Inhibition of ATP synthesis and hydrolysis by the F1F0-ATPase. The class given is biochemical. As for the experimental part:
(§1) The compounds listed in Table 4 were tested for activity against F1F0-ATPase and cytotoxicity in Ramos cells. Inhibition of ATP synthesis and hydrolysis by the F1F0-ATPase was measured as described in K. M. Johnson et al., Chemistry & Biology 2005, 12, 485-496. Cytotoxicity in Ramos cells was measured as described in K. M. Johnson et al., Chemistry & Biology 2005, 12, 485-496, or using the alamarBlue™ Assay with fluorescence detection (U.S. Pat. No. 5,501,959) as supplied and described by Invitrogen (Carlsbad, Calif.).

The test system of test [2] is Ramos cells. Kind of test: Cytotoxicity in Ramos cells. The class given is cell-based. Particulars: Homo sapiens, read-out: Ramos Cell EC50. As for the experimental part:
as §1

Like-named read-outs stand apart in the source and are kept apart here.

As to `CNC(=O)Nc1ccc(C2=NC(Cc3ccccc3Br)C(=O)Nc3ccc(Cl)cc32)cc1` (stereo not drawn) [Compound 11, (Z)-1-(4-(3-(2-bromobenzyl)-7-chloro-2-oxo-2,3-dihydro-1H-benzo[e][1,4]diazepin-5-yl)phenyl)-3-methylurea], the half-maximal inhibitory concentration (IC50) in test [1] was in the range of 5 to 10 µM. Further, in test [2] (cytotoxicity in Ramos cells), the EC50 is < 5 µM.

`CCc1ccc(CC2N=C(c3ccc(O)cc3)c3cc(Cl)ccc3N(C)C2=O)cc1` (stereo not drawn) [Compound 27, (Z)-7-chloro-3-(4-ethylbenzyl)-5-(4-hydroxyphenyl)-1-methyl-1H-benzo[e][1,4]diazepin-2(3H)-one] came in with an IC50 in test [1] of 5 to 10 µM. Moreover, in test [2] (cytotoxicity in Ramos cells), the concentration for a half-maximal effect (EC50) lay within 5 to 10 µM.

For the compound `CC(C)NC(=O)Nc1ccc(C2=NC(Cc3ccccc3F)C(=O)Nc3ccc(Cl)cc32)cc1` (stereo not drawn) [Compound 3, (Z)-1-(4-(7-chloro-3-(2-fluorobenzyl)-2-oxo-2,3-dihydro-1H-benzo[e][1,4]diazepin-5-yl)phenyl)-3-isopropylurea], the 50% inhibitory concentration (IC50) in test [1] (read-out: ATPase IC50) lay within 5 to 10 µM. Besides, the EC50 in test [2] (cytotoxicity in Ramos cells) lay within 5 to 10 µM.

Turning to `CCOCCNC(=O)Nc1ccc(C2=NC(Cc3ccccc3Cl)C(=O)Nc3ccc(Cl)cc32)cc1` (stereo not drawn) [Compound 10, (Z)-1-(4-(7-chloro-3-(2-chlorobenzyl)-2-oxo-2,3-dihydro-1H-benzo[e][1,4]diazepin-5-yl)phenyl)-3-(2-ethoxyethyl)urea], the half-maximal inhibitory concentration (IC50) in test [1] (read-out: ATPase IC50) lay in the range of 5 to 10 µM. For the same compound, in test [2] (cytotoxicity in Ramos cells), the concentration giving a half-maximal response (EC50) is < 5 µM.

Consider `CC(C)NC(=O)Nc1ccc(C2=NC(Cc3ccccc3Br)C(=O)Nc3ccc(Cl)cc32)cc1` (stereo not drawn) [Compound 1, (Z)-1-(4-(3-(2-bromobenzyl)-7-chloro-2-oxo-2,3-dihydro-1H-benzo[e][1,4]diazepin-5-yl)phenyl)-3-isopropylurea], for which the IC50 in test [1] (read-out: ATPase IC50) lay within 5 to 10 µM. Besides, in test [2] (cytotoxicity in Ramos cells), the EC50 was < 5 µM.

`O=C1Nc2ccc(Cl)cc2C(c2ccc(O)cc2)=NC1Cc1ccccc1Br` (stereo not drawn) [Compound 33, (Z)-3-(2-bromobenzyl)-7-chloro-5-(4-hydroxyphenyl)-1H-benzo[e][1,4]diazepin-2(3H)-one] had an IC50 in test [1] of 5 to 10 µM. In addition, in test [2] (Ramos), the EC50 is < 5 µM.

For `Cc1ccc(CC2N=C(c3ccc(O)cc3)c3cc(Cl)ccc3N(C)C2=O)cc1` (stereo not drawn) [Compound 22, (Z)-7-chloro-5-(4-hydroxyphenyl)-1-methyl-3-(4-methylbenzyl)-1H-benzo[e][1,4]diazepin-2(3H)-one], the IC50 in test [1] is > 10 µM. Further, in test [2] (cytotoxicity in Ramos cells), the EC50 was > 10 µM.

As for `CN1C(=O)C(Cc2cccc(Cl)c2)N=C(c2ccc(O)cc2)c2cc(Cl)ccc21` (stereo not drawn) [Compound 39, (Z)-7-chloro-3-(3-chlorobenzyl)-5-(4-hydroxyphenyl)-1-methyl-1H-benzo[e][1,4]diazepin-2(3H)-one], in test [1], the IC50 is > 10 µM. Also, in test [2] (cytotoxicity in Ramos cells), the EC50 was > 10 µM.

On to `CN1C(=O)C(Cc2ccccc2Cl)N=C(c2ccc(O)cc2)c2cc(Cl)ccc21` (stereo not drawn) [Compound 34, (Z)-7-chloro-3-(2-chlorobenzyl)-5-(4-hydroxyphenyl)-1-methyl-1H-benzo[e][1,4]diazepin-2(3H)-one], for which the IC50 in test [1] was < 5 µM. Moreover, in test [2] (cytotoxicity in Ramos cells), the half-maximal effective concentration (EC50) lay in the range of 5 to 10 µM.

`CN(C)CCNC(=O)Nc1ccc(C2=NC(Cc3ccccc3Br)C(=O)Nc3ccc(Cl)cc32)cc1` (stereo not drawn) [Compound 12, (Z)-1-(4-(3-(2-bromobenzyl)-7-chloro-2-oxo-2,3-dihydro-1H-benzo[e][1,4]diazepin-5-yl)phenyl)-3-(2-(dimethylamino)ethyl)urea]: the IC50 in test [1] (read-out: ATPase IC50) was 5 to 10 µM. The half-maximal effective concentration (EC50) in test [2] (cytotoxicity in Ramos cells) is < 5 µM.

In turn, `Cc1ccccc1CC1N=C(c2ccc(O)cc2)c2cc(Cl)ccc2NC1=O` (stereo not drawn) [Compound 17, (Z)-7-chloro-5-(4-hydroxyphenyl)-3-(2-methylbenzyl)-1H-benzo[e][1,4]diazepin-2(3H)-one] displayed an IC50 in test [1] of 5 to 10 µM. The EC50 in test [2] (Ramos) lay in the range of 5 to 10 µM.

Regarding `CN1C(=O)C(Cc2ccc(Br)cc2)N=C(c2ccc(O)cc2)c2cc(Cl)ccc21` (stereo not drawn) [Compound 38, (Z)-3-(4-bromobenzyl)-7-chloro-5-(4-hydroxyphenyl)-1-methyl-1H-benzo[e][1,4]diazepin-2(3H)-one], the IC50 in test [1] is < 5 µM. The EC50 in test [2] (cytotoxicity in Ramos cells) is 5 to 10 µM.

Consider `CC(C)c1ccc(CC2N=C(c3ccc(O)cc3)c3cc(Cl)ccc3N(C)C2=O)cc1` (stereo not drawn) [Compound 31, (Z)-7-chloro-5-(4-hydroxyphenyl)-3-(4-isopropylbenzyl)-1-methyl-1H-benzo[e][1,4]diazepin-2(3H)-one], for which the IC50 in test [1] was 5 to 10 µM. Moreover, the EC50 in test [2] (cytotoxicity in Ramos cells) lay within 5 to 10 µM.

Regarding `O=C1Nc2ccc(Cl)cc2C(c2ccc3[nH]c(=O)[nH]c3c2)=NC1Cc1ccccc1Cl` (stereo not drawn) [Compound 41, (Z)-7-chloro-3-(2-chlorobenzyl)-5-(2-oxo-2,3-dihydro-1H-benzo[d]imidazol-5-yl)-1H-benzo[e][1,4]diazepin-2(3H)-one], the IC50 in test [1] was < 5 µM. In addition, the EC50 in test [2] (cytotoxicity in Ramos cells) was < 5 µM.

`CN1C(=O)C(Cc2cccc(Br)c2)N=C(c2ccc(O)cc2)c2cc(Cl)ccc21` (stereo not drawn) [Compound 37, (Z)-3-(3-bromobenzyl)-7-chloro-5-(4-hydroxyphenyl)-1-methyl-1H-benzo[e][1,4]diazepin-2(3H)-one]: the IC50 in test [1] is < 5 µM. Further, the EC50 in test [2] (cytotoxicity in Ramos cells) lay in the range of 5 to 10 µM.

On to `Cc1ccccc1CC1N=C(c2ccc(O)cc2)c2cc(Cl)ccc2N(C)C1=O` (stereo not drawn) [Compound 18, (Z)-7-chloro-5-(4-hydroxyphenyl)-1-methyl-3-(2-methylbenzyl)-1H-benzo[e][1,4]diazepin-2(3H)-one], for which the IC50 in test [1] is > 10 µM. Besides, the EC50 in test [2] (cytotoxicity in Ramos cells) was > 10 µM.

Regarding `CCc1ccc(CC2N=C(c3ccc(O)cc3)c3cc(Cl)ccc3NC2=O)cc1` (stereo not drawn) [Compound 28, (Z)-7-chloro-3-(4-ethylbenzyl)-5-(4-hydroxyphenyl)-1H-benzo[e][1,4]diazepin-2(3H)-one], in test [1], the IC50 fell in the range of 5 to 10 µM. In test [2] (cytotoxicity in Ramos cells), the 50% effective concentration (EC50) is 5 to 10 µM.

For the compound `COCCNC(=O)Nc1ccc(C2=NC(Cc3ccccc3Cl)C(=O)Nc3ccc(Cl)cc32)cc1` (stereo not drawn) [Compound 9, (Z)-1-(4-(7-chloro-3-(2-chlorobenzyl)-2-oxo-2,3-dihydro-1H-benzo[e][1,4]diazepin-5-yl)phenyl)-3-(2-methoxyethyl)urea], in test [1] (read-out: ATPase IC50), the IC50 is 5 to 10 µM. Besides, in test [2] (cytotoxicity in Ramos cells), the EC50 was < 5 µM.

Regarding `CN1C(=O)C(Cc2ccccc2Br)N=C(c2ccc3[nH]c(=O)[nH]c3c2)c2cc(Cl)ccc21` (stereo not drawn) [Compound 35, (Z)-3-(2-bromobenzyl)-7-chloro-1-methyl-5-(2-oxo-2,3-dihydro-1H-benzo[d]imidazol-5-yl)-1H-benzo[e][1,4]diazepin-2(3H)-one], the EC50 in test [2] (Ramos) is 5 to 10 µM.

For `CC(C)NC(=O)Nc1ccc(C2=NC(Cc3ccccc3Cl)C(=O)Nc3ccc(Cl)cc32)cc1` (stereo not drawn) [Compound 4, (Z)-1-(4-(7-chloro-3-(2-chlorobenzyl)-2-oxo-2,3-dihydro-1H-benzo[e][1,4]diazepin-5-yl)phenyl)-3-isopropylurea], the IC50 in test [1] (read-out: ATPase IC50) lay within 5 to 10 µM. The EC50 in test [2] (cytotoxicity in Ramos cells) was < 5 µM.

`CCc1cccc(CC2N=C(c3ccc(O)cc3)c3cc(Cl)ccc3N(C)C2=O)c1` (stereo not drawn) [Compound 26, (Z)-7-chloro-3-(3-ethylbenzyl)-5-(4-hydroxyphenyl)-1-methyl-1H-benzo[e][1,4]diazepin-2(3H)-one] registered a concentration for half-maximal inhibition (IC50) in test [1] of 5 to 10 µM. Besides, the EC50 in test [2] (cytotoxicity in Ramos cells) lay within 5 to 10 µM.

For `O=C(NCC(F)(F)F)Nc1ccc(C2=NC(Cc3ccccc3Cl)C(=O)Nc3ccc(Cl)cc32)cc1` (stereo not drawn) [Compound 7, (Z)-1-(4-(7-chloro-3-(2-chlorobenzyl)-2-oxo-2,3-dihydro-1H-benzo[e][1,4]diazepin-5-yl)phenyl)-3-(2,2,2-trifluoroethyl)urea], the IC50 in test [1] (read-out: ATPase IC50) was < 5 µM. Besides, the EC50 in test [2] (cytotoxicity in Ramos cells) was < 5 µM.

For `O=C(NCC(F)(F)F)Nc1ccc(C2=NC(Cc3ccccc3Br)C(=O)Nc3ccc(Cl)cc32)cc1` (stereo not drawn) [Compound 13, (Z)-1-(4-(3-(2-bromobenzyl)-7-chloro-2-oxo-2,3-dihydro-1H-benzo[e][1,4]diazepin-5-yl)phenyl)-3-(2,2,2-trifluoroethyl)urea], in test [1] (read-out: ATPase IC50), the IC50 was < 5 µM. Besides, the EC50 in test [2] (cytotoxicity in Ramos cells) was < 5 µM.

With `O=C1Nc2ccc(Cl)cc2C(c2ccc(O)cc2)=NC1Cc1ccccc1Cl` (stereo not drawn) [Compound 40, (Z)-7-chloro-3-(2-chlorobenzyl)-5-(4-hydroxyphenyl)-1H-benzo[e][1,4]diazepin-2(3H)-onc], the IC50 in test [1] was < 5 µM. Also, the EC50 in test [2] (Ramos) was in the range of 5 to 10 µM.

As to `CCc1cccc(CC2N=C(c3ccc(O)cc3)c3cc(Cl)ccc3NC2=O)c1` (stereo not drawn) [Compound 25, (Z)-7-chloro-3-(3-ethylbenzyl)-5-(4-hydroxyphenyl)-1H-benzo[e][1,4]diazepin-2(3H)-one], the IC50 in test [1] is 5 to 10 µM. In addition, in test [2] (cytotoxicity in Ramos cells), the EC50 is 5 to 10 µM.

Regarding `CN1C(=O)C(Cc2ccc(C(F)(F)F)cc2)N=C(c2ccc(O)cc2)c2cc(Cl)ccc21` (stereo not drawn) [Compound 36, (Z)-7-chloro-5-(4-hydroxyphenyl)-1-methyl-3-(4-(trifluoromethyl)benzyl)-1H-benzo[e][1,4]diazepin-2(3H)-one], the IC50 in test [1] is < 5 µM. Also, the EC50 in test [2] (cytotoxicity in Ramos cells) lay within 5 to 10 µM.

As to `COCCNC(=O)Nc1ccc(C2=NC(Cc3ccccc3Br)C(=O)Nc3ccc(Cl)cc32)cc1` (stereo not drawn) [Compound 15, (Z)-1-(4-(3-(2-bromobenzyl)-7-chloro-2-oxo-2,3-dihydro-1H-benzo[e][1,4]diazepin-5-yl)phenyl)-3-(2-methoxyethyl)urea], the IC50 in test [1] (read-out: ATPase IC50) lay in the range of 5 to 10 µM. Further, the EC50 in test [2] (cytotoxicity in Ramos cells) is < 5 µM.

`O=C(Nc1ccc(C2=NC(Cc3ccccc3Br)C(=O)Nc3ccc(Cl)cc32)cc1)NC1CC1` (stereo not drawn) [Compound 14, (Z)-1-(4-(3-(2-bromobenzyl)-7-chloro-2-oxo-2,3-dihydro-1H-benzo[e][1,4]diazepin-5-yl)phenyl)-3-cyclopropylurea]: the IC50 in test [1] (read-out: ATPase IC50) is 5 to 10 µM. In addition, the half-maximal effective concentration (EC50) in test [2] (cytotoxicity in Ramos cells) is < 5 µM.

For `O=C(Nc1ccc(C2=NC(Cc3ccccc3Cl)C(=O)Nc3ccc(Cl)cc32)cc1)NC1CC1` (stereo not drawn) [Compound 8, (Z)-1-(4-(7-chloro-3-(2-chlorobenzyl)-2-oxo-2,3-dihydro-1H-benzo[e][1,4]diazepin-5-yl)phenyl)-3-cyclopropylurea], the IC50 in test [1] (read-out: ATPase IC50) is 5 to 10 µM. The EC50 in test [2] (cytotoxicity in Ramos cells) was < 5 µM.

The IC50 is the concentration needed to halve the response being measured. One may read the EC50 as the concentration needed to bring the measured effect to its halfway point.
